Source: paper PMC11459966, “Oral pharmacokinetics and efficacy of oral phospholipid remdesivir nucleoside prodrugs against SARS-CoV-2 in mice” (Antimicrobial Agents and Chemotherapy, 2024)
Read-outs that look alike come from different tables or passages of the source.

Key:
[1] = 5-day oral tolerability study with terminal pharmacokinetics in BALB/c mice; assay type: in vivo; settings: 80 mg/kg or 100 mg/kg daily PO
Protocol: Fig 3 Oral RVn prodrugs maintain high serum levels after repeated dosing in mice and hamsters. Multiple-dose oral tolerability and pharmacokinetics in mice and Syrian hamsters: (A and B) 5-day oral tolerability study in BALB/c mice with pharmacokinetics obtained after the final dose. Male 20–22 g mice were given the indicated drugs at (A) 80 mg/kg or (B) 100 mg/kg PO daily in 0.1 M sodium carbonate/bicarbonate pH 9 for 5 days. Plasma was obtained after the last dose at 1, 3, 6, and 12 h (In Vivo Technologies, Moffatt Field, CA). (C) 7-day oral tolerability study in Syrian hamsters with pharmacokinetics obtained after the final dose. […] All plasma samples were analyzed to determine prodrug levels (Aliri Bio, Colorado Springs, CO).
After fortification, 50 µL of plasma was crashed with 400 µL of methanol containing 10 ng/mL of the internal standard (V2066). One hundred fifty microliters of the supernatant was removed and diluted with 150 µL of water in a clean 96 well injection plate.
Chromatography for the prodrugs was performed on a Raptor Biphenyl (2.1 × 50) column at a flow rate of 0.5 mL/min. A gradient method starting at 60% B (0.1% formic acid in 90:10 methanol:acetonitrile) for 30 s and then ramping to 95% B over 2.5 min. This composition was held for 1.0 min before being returned to starting conditions and re-equilibration to 40% A (10 mM ammonium formate with 0.2% formic acid in water).
Oral pharmacokinetic studies were carried out at In Vivo Technologies (Moffatt Field, CA) in male BALB/c mice, 22–23 g under IACUC protocol number IVT-11–010Y12 (LifeSource Animal Care and Use Committee). […] Blood was obtained by facial vein or terminal cardiac puncture at the indicated times and plasma was frozen for analysis. Similar procedures were followed for 5-day tolerability and terminal dose pharmacokinetic studies in mice at oral daily doses of 80 or 100 mg/kg.

[2] = system: SARS-CoV-2 isolate USA-WA1/2020; assay: microbe, parasite or virus in culture; assay type: cell-based
Huh7.5 cells = system: Huh7.5 cells; set-up: method as in PMID 37040439; settings: Huh7.5, CellTiter-Glo, previously published, identical conditions ref 7; cited from earlier work
[3] = system: SARS-CoV-2 isolate USA-WA1/2020
A2T2-A549 cells = assay: Cell viability assay (CellTiter-Glo), A2T2-A549; settings: A2T2-A549, CellTiter-Glo, 48 h incubation
[4] = system: SARS-CoV-2 isolate USA-WA1/2020; remark: listed apart in the source
[5] = system: SARS-CoV-2 isolate USA-WA1/2020; set-up: method as in PMID 37040439; settings: Calu-3, dotted lines of Fig. 2 and 3 ref 7; read-out: in vitro EC90 for SARS-CoV-2 infection in Calu-3 cells; cited from earlier work
Vero-TMPRSS2 cells = assay: Cell viability assay (CellTiter-Glo), Vero-TMPRSS2; assay type: cell-based, African green monkey; settings: 48 h incubation
Protocol: Cell viability assays (Table 1) were performed as previously described ([7]). Cells were cultured and seeded as per in vitro antiviral studies in opaque walled 96-well cell culture plates and incubated overnight for Huh7.5, A2T2-A549, and Vero-E6-TMPRSS2 cells and for 2 days for Calu-3 cells. Compounds or controls were added at the indicated concentrations in a total volume of 100 µL, and cells were incubated for 48 h. An equal volume of CellTiter-Glo reagent (Promega, Cat. #G7570) or CellTiter-Glo 2.0 reagent (Promega, Cat. #G9241) was added and mixed, and luminescence was recorded on a Veritas Microplate Luminometer (Turner BioSystems) or a Spark Multimode plate reader (Tecan) according to manufacturer instructions. Percent viability was normalized to DMSO controls, and CC50 values were derived from best fit curves calculated in Prism 10.

[6] = Single dose PO or IV plasma pharmacokinetics and tolerability in BALB/c mice; settings: BALB/c mice
[7] = system: SARS-CoV-2 isolate USA-WA1/2020; remark: listed apart in the source
Calu-3 cells = system: Calu-3 cells; set-up: method as in PMID 37040439; settings: Calu-3, CellTiter-Glo, previously published, identical conditions ref 7; cited from earlier work
[8] = set-up: method as in PMID 38776389; settings: twice daily oral 30 mg/kg doses, BALB/c mice ref 10; cited from earlier work
[9] = system: SARS-CoV-2 isolate USA-WA1/2020; assay: microbe, parasite or virus in culture
[10] = set-up: method as in PMID 34937145; settings: early administration, non-hospitalized high-risk individuals ref 5; cited from earlier work

## CCCCCCCCCCCCCCCCCCOCC(COP(=O)(O)OC[C@H]1O[C@@](C#N)(c2ccc3c(N)ncnn23)[C@H](O)[C@@H]1O)OCc1ccc(C#N)cc1 (stereo partly drawn) [Compound V2067]
[1]
  tolerability of once-daily oral doses for 5 days: no adverse clinical effects were noted
[2]; Calu-3
  Relative activity vs RVn (RVN EC50/Test Compound EC50): 12.5×
[2]; Calu-3 cells, 44–48 hpi
  EC50: 0.053 ± 0.018 µM
  EC90: 0.172 ± 0.14 µM
Huh7.5 cells
  CC50: 47200 nM
[3]; A2T2-A549
  Relative activity vs RVn (RVN EC50/Test Compound EC50): 14.1×
  SI (CC50/EC50): 386
[3]; read-out: EC50 μM ± SD, A2T2-A549 cells, 48 hpi
  EC50: 0.213 ± 0.026 µM
[3]; read-out: EC90 μM ± SD, A2T2-A549 cells, 48 hpi
  EC90: 0.441 ± 0.071 µM
A2T2-A549 cells
  CC50: 82300 nM
[4]; Vero-TMPRSS2
  Relative activity vs RVn (RVN EC50/Test Compound EC50): 23.4×
  SI (CC50/EC50): 1,239
[4]; read-out: EC50 μM ± SD, Vero-TMPRSS2 cells, 32 hpi
  EC50: 0.046 ± 0.014 µM
[4]; read-out: EC90 μM ± SD, Vero-TMPRSS2 cells, 32 hpi
  EC90: 0.107 ± 0.02 µM
[5]
  EC90: 82 nM
Vero-TMPRSS2 cells
  CC50: 57000 nM
[6]; 20, 60 or 180 mg/kg single oral dose
  tolerability of single escalating oral doses: well tolerated with no appreciable adverse effects
[6]; IV, 7 mg/kg, plasma
  AUC: 36.16 µM·h
  Cmax: 116 µM
  T1/2: 0.23 h
[6]; Oral, 20 mg/kg
  AUC: 64.70 µM·h
  CL/F: 6.22 mL/min/kg
  Cmax: 8.83 µM
  T1/2: 4.06 h
  Vd/F: 2.18 L/kg
[6]; Oral, 60 mg/kg
  AUC: 154.00 µM·h
  CL/F: 7.5 mL/min/kg
  Cmax: 24.9 µM
  T1/2: 6.83 h
  Vd/F: 4.38 L/kg
[6]; Oral, 180 mg/kg
  AUC: 332.00 µM·h
  CL/F: 8.17 mL/min/kg
  Cmax: 41 µM
  T1/2: 12.40 h
  Vd/F: 8.74 L/kg
[6]; oral vs IV (7 mg/kg) prodrug exposure, printed on the 20 mg/kg oral lines
  F% (oral bioavailability): 57.0%
[7]; Huh7.5
  Relative activity vs RVn (RVN EC50/Test Compound EC50): 37.7×
  SI (CC50/EC50): 1,311
[7]; read-out: EC50 μM ± SD, Huh7.5 cells, 48 hpi
  EC50: 0.036 ± 0.014 µM
[7]; read-out: EC90 μM ± SD, Huh7.5 cells, 48 hpi
  EC90: 0.096 ± 0.037 µM
Calu-3 cells
  CC50: 60200 nM

## CC(C)C(=O)OC[C@H]1O[C@@](C#N)(c2ccc3c(N)ncnn23)[C@H](O)[C@@H]1O [Obeldesivir GS-5245, reference compound]
[8]
  daily systemic exposure: 108 µM·h
[9]; Severe acute respiratory syndrome coronavirus 2, read-out: EC50 μM ± SD
  EC50: 1.2 ± 0.084 µM
[9]; Severe acute respiratory syndrome coronavirus 2, read-out: EC90 μM ± SD
  EC90: 1.89 ± 0.46 µM

## CCC(CC)COC(=O)[C@H](C)N[P@](=O)(OC[C@H]1O[C@@](C#N)(c2ccc3c(N)ncnn23)[C@H](O)[C@@H]1O)Oc1ccccc1 [remdesivir]
[10]
  decrease of the risk of hospitalization or death: 87%
